The values below are quoted from earlier work in patent publication US20200138036A1, “FUMIGANT FORMULATION” (Linde Aktiengesellschaft, priority 2017, published 2020).

Where a name gives a salt, the structure may show the parent alone.

The conditions of this series: at 20° C.

In general, vapour pressure refers to the equilibrium pressure above the liquid or solid. For `CCOC=O` [Ethyl formate], the vapour pressure is 25.9 kPa.
